Results reported in patent publication US10646567B2, “Methods of treating cancer using PD-1 axis binding antagonists and MEK inhibitors” (Genentech, Inc., priority 2011, dated 2020).

Tests used:
[1] = system: human melanoma cell lines and human colorectal cell lines; assay: Surface MHC-I expression on human tumor cell lines (FACS); assay type: cell-based; conditions: 1 micromolar, 24 hours, compared to vehicle treated cells
Protocol: To determine if treatment with MEK inhibitor (MEKi) enhanced immunogenicity of tumor cells, surface expression of MHC-I on tumor cell lines treated with MEK inhibitors GDC-0973 and G-38963 was assayed. Briefly, human melanoma cell lines (Malme-3M, A2058, […][…], SK23, SKMEL-28, 537 Mel, RPMI-795) and human colorectal cell lines (Colo 320 DM, Colo 205, WiDr, Colo 741, RKO, DLD-1, HM7, HCT-15) were treated with 1 micromolar […]-0973 or G-38963, BRAF inhibitor (BRAFi) GDC-0879, or DMSO vehicle for 24 hours. Following treatment, cells were stained for surface MHC Class I expression with an antibody against […] for subsequent FACS analysis. Data shown is for treatment […]-0973. Labeled isotype-matched antibodies were used to determine the level of non-specific staining.

[2] = system: mouse tumor cell lines (MC38, B16.F10, CT26); assay: Surface MHC-I expression on mouse tumor cell lines (FACS); assay type: cell-based; conditions: 1 micromolar, 24 hours, compared to vehicle treated cells
Protocol: To determine if treatment with MEK inhibitor (MEKi) enhanced immunogenicity of mouse tumor cells similarly to human tumor cells, surface expression of MHC-I on mouse tumor cell lines treated with MEKi GDC-0973 was assayed. Briefly, mouse melanoma cell lines ([…]) and a mouse colorectal cell line (CT26) were treated with MEKi GDC-0973, G-38963 or vehicle. Briefly, cells were stimulated for 24 hours with 1 micromolar MEK inhibitor or DMSO vehicle control. Following treatment, cells were surfaced stained with an antibody against MHC-I (H-2D) and expression was assayed by subsequent FACS analysis. Labeled isotype-matched antibodies were used to determine the level of non-specific staining.

human CD8+ T cells = assay: CD8+ T cell proliferation (3H-thymidine); assay type: cell-based; conditions: for T cell receptor induced proliferation, anti-CD3 stimulation: 0.01 μM MEKi; for T cell activation, co-stimulation with anti-CD3 and anti-CD28: 10 μM to 0.001 μM MEKi; for T cell proliferation, anti-CD3 stimulation: all MEKi concentrations tested (10 μM to 0.001 μM)
Protocol: Recent studies have shown that MEK inhibitor treatment impairs T lymphocyte function (Boni et al., Cancer Res., 70(13), 2010). To confirm that MEK inhibitor treatment impaired CD8+ T cells, T cells were treated with MEKi in combination with T cell stimulation signals and assayed for T cell proliferation. Briefly, human CD8+ T cells were purified from whole blood using StemCell Technologies human CD8 RosetteSep as per manufacturer's instructions. Purified cells were plated at 200,000 per well in triplicate in 96-well U-bottom plates with 200,000 per well of either anti-CD3 or anti-CD3/anti-CD28 Dynabeads (Invitrogen). MEK inhibitors GDC-0973 and G-38963 were titrated 10-fold from 10 μM to 0.001 μM such that the final culture concentration was 0.5% DMSO in a total volume of 200 μl per well. […] Gluta-MAX, sodium pyruvate, penicillin/streptomycin, and non-essential amino acids. At 48 hours, wells were pulsed with 1 μCi/well of 3H-thymidine and cultured an additional 16 hours prior to freezing and harvest.

[3] = system: human monocyte-derived dendritic cells; assay: Maturation and activation of monocyte-derived dendritic cells with anti-CD40 (FACS); assay type: cell-based; conditions: for frequency of DCs expressing surface markers of DC maturation and activation: increasing concentrations 0.001 μM to 10 μM, anti-CD40 co-stimulation
Protocol: Briefly, human monocytes were purified from whole blood using StemCell Technologies human monocyte RosetteSep as per manufacturer's instructions. Monocytes were seeded in T175 flasks at approximately 0.5-1.0×10^6 per ml in 50 ng/ml human GM-CSF and 100 ng/ml human IL-4 for 7 days total, with half-media exchanges every 2 days. […] MEK inhibitors and BRAF inhibitor were titrated 10-fold from 10 μM to 0.001 μM such that the final culture concentration was 0.5% DMSO in a total volume of 200 μl per well. Forty-eight hours later, cells were harvested and transferred to a 96-well V-bottom plate. […] HLA-DR,-DP,-DQ-FITC, HLA-ABC-PE, CD83-APC, CD14-FITC, CD80-PE, and CD86-APC. Propidium iodide was included to exclude dead cells. Samples were run on a BD FACSCaliber flow cytometer and data was analyzed using FlowJo software (Tree Star, Inc.).

[4] = system: serum IL-10 and KC in tumor bearing animals; assay: Serum cytokine levels in tumor bearing mice (Bio-Plex); assay type: in vivo; conditions: melanoma and colorectal models, 7 days after treatment
Description: Briefly, 7 days after treatment, mice were anaesthetized and bled retro-orbitally for serum.

colorectal tumors = assay: Colorectal tumor mouse model, G-38963 and anti-PD-L1; assay type: in vivo, mice; conditions: early (200 mm3) or late (450 mm3) intervention; anti-PD-L1 10 mg/kg ip 3x/week for 3 weeks; G-38963 75 mg/kg orally daily 21 days
Protocol: (§1) To determine if MEKi enhanced the anti-tumor effect of anti-PD-L1 antibodies, mouse models for colorectal tumors were treated with the combination treatment. Briefly, mice were inoculated subcutaneously with tumor cells and allowed to grow tumors. When tumor bearing mice achieved a mean tumor volume of 200 mm3 (FIG. 7A) or 450 mm3 (FIG. 7B), mice were randomly assigned to 1 of 4 treatment groups. […] Mice were monitored for tumor growth and body weight changes.

[5] = system: Cloudman S91 melanoma tumors; assay: Melanoma tumor mouse model; assay type: in vivo, mice; conditions: anti-PD-L1 10 mg/kg ip 3x/week for 3 weeks; G-38963 75 mg/kg orally daily 21 days
Protocol: as §1, with “melanoma” for “colorectal”, “100-200 mm3,” for “200 mm3 (FIG. 7A) or 450 mm3 (FIG. 7B),”

[6] = system: human peripheral blood mononuclear cells; assay: Surface MHC-I expression on human PBMCs (FACS); assay type: cell-based; conditions: 1 μM or 3 μM, 24 hours; CD4+ T cells, CD8+ T cells, B cells, monocytes; compared to vehicle
Protocol: To determine if enhanced cell surface expression of MHC-I is specific to tumor cells, the effect of MEKi treatment on MHC-I expression on human peripheral blood mononuclear cells (PMBCs) was assayed. Briefly, PMBCS were isolated from whole blood by first diluting it with an equal volume of room temperature PBS and subsequent overlay onto Ficoll-filled Leucosep tubes (Greiner Bio-One). […] Gluta-MAX, sodium pyruvate, penicillin/streptomycin, and non-essential amino acids). Cells were plated in 6 well plates at 4×10^6 per well with a total of 4 ml per well. MEK inhibitor GDC-0973 was added at either 1 μM or 3 μM. Cells were harvested 24 hours later and distributed to a 96-well V-bottom plate for FACS staining. […] CD3-FITC, HLA-ABC-PE, CD4-APC, CD19-FITC, and CD14-FITC. Propidium iodide was included to exclude dead cells. Samples were run on a BD FACSCaliber flow cytometer and data was analyzed using FlowJo software (Tree Star, Inc.).

[7] = system: CT26 murine colorectal cells; assay: CT26 colorectal tumor model, GDC-0973 dose study (first study); assay type: in vivo, BALB/c mice
Protocol: For the first study, female BALB/c mice were inoculated subcutaneously in the unilateral thoracic region with 100,000 CT26 murine colorectal cells in 100 μL of HBSS:matrigel. […] Groups of 10 mice were orally given the following in a volume of 200 μl daily for 21 days: Group 1 received MCT vehicle; Group 2 received 0.5 mg/kg GDC-0973; Group 3 received 1.0 mg/kg GDC-0973; Group 4 received 2.0 mg/kg GDC-0973; Group 5 received 3.0 mg/kg GDC-0973; Group 6 received 4.0 mg/kg GDC-0973; Group 7 received 5.0 mg/kg GDC-0973; Group 8 received 6.0 mg/kg GDC-0973; and Group 9 received 7.5 mg/kg GDC-0973. For both studies, mice were monitored for tumor growth and body weight changes two to three times per week for the duration of the study. […] Fred V. Fowler Company; Newton, Mass.) with length and width measurements perpendicular to one another, and tumor volume was calculated using the equation: Tumor Volume (mm^3)=(Length×Width^2)×0.5 For measurement of body weights, mice were weighed using an Adventura Pro AV812 scale (Ohaus Corporation; Pine Brook, N.J.). Percent body weight change was calculated using the equation: Body weight change (%)=[(WeightDay new−WeightDay 0)/WeightDay 0]×100 Data was analyzed using R, version 2.9.2 (R Development Core Team 2008; R Foundation for Statistical Computing; Vienna, Austria), and the mixed models were fit within R using the nlme package, version 3.1-96 (Pinheiro J et al., R package version 3. 2009, 1-96). Plotting was performed in Prism, version 5.0b for Mac (GraphPad Software, Inc.; La Jolla, Calif.). A mixed modeling approach was used to analyze the repeated measurement of tumor volumes from the same animals over time (Pinheiro J et al., Statistics and Computing, Springer. 2010). This approach addressed both repeated measurements and modest dropouts before study end for reasons classifiable statistically as missing at random (MAR). The fixed effect changes in log2 (volume) by time and dose are modeled as the sum of the main effects and interaction of a natural cubic regression spline basis in time with an auto-determined natural spline basis in dose. Intercepts and growth rates (slopes) were assumed to vary randomly by animal. […] Complete Response (CR) was defined as an individual animal whose tumor volume fell below the Limit of Detection (LOD), at any time during the study. Partial Response (PR) was defined as an individual animal whose tumor volume decreased by 50% of its initial tumor volume at any time during the study. Overall Response Rate (ORR) was defined as the sum of the complete and partial responses. Time To Progression 5X (TTP5X) was defined as the time in days for a group's fitted tumor volume (based upon the mixed modeling analysis described above) to exceed 5 times the starting volume, rounded to the nearest half day and reported as the TTP5X for that group. Linear mixed-effects analysis was also employed to analyze the repeated measurement of body weight changes from the same animals over time.

[8] = system: CT26 murine colorectal cells; assay: CT26 colorectal tumor model, anti-PD-L1 and GDC-0973 combination (second study); assay type: in vivo, BALB/c mice; conditions: GDC-0973 7.5 mg/kg orally daily for 21 days
Protocol: For the second study, female BALB/c mice were inoculated subcutaneously in the unilateral thoracic region with 100,000 CT26 murine colorectal cells in 100 μL of HBSS:matrigel. When mice achieved a mean tumor volume of approximately 200 mm3, they were randomly assigned to one of six different treatment groups on experimental day 0 and treatment was initiated on experimental day 1.
For both studies, mice were monitored for tumor growth and body weight changes two to three times per week for the duration of the study. For measurement of tumor growth, tumor volume was measured using UltraCal-IV calipers (Model 54-10-111; Fred V. Fowler Company; Newton, Mass.) with length and width measurements perpendicular to one another, and tumor volume was calculated using the equation: Tumor Volume (mm^3)=(Length×Width^2)×0.5
Data was analyzed using R, version 2.9.2 (R Development Core Team 2008; R Foundation for Statistical Computing; Vienna, Austria), and the mixed models were fit within R using the nlme package, version 3.1-96 (Pinheiro J et al., R package version 3. 2009, 1-96). […] A mixed modeling approach was used to analyze the repeated measurement of tumor volumes from the same animals over time (Pinheiro J et al., Statistics and Computing, Springer. 2010). This approach addressed both repeated measurements and modest dropouts before study end for reasons classifiable statistically as missing at random (MAR). The fixed effect changes in log2 (volume) by time and dose are modeled as the sum of the main effects and interaction of a natural cubic regression spline basis in time with an auto-determined natural spline basis in dose. Intercepts and growth rates (slopes) were assumed to vary randomly by animal. Tumor growth inhibition as a percentage of the control-treated group (% TGI) was calculated as the percentage of the area under the fitted curve (AUC) for the respective treatment group per day in relation to the control while the control treated mice were still on study, using the equation: % TGI=100×(1−AUCdose/AUCvehicles)

[9] = system: mouse bone marrow dendritic cells; assay: Activation of mouse bone marrow derived dendritic cells (FACS); assay type: cell-based; conditions: GDC-0973 1 μM, anti-PD-L1 10 μg/ml, 48 hours
Protocol: Briefly, mouse bone marrow cells were isolated and seeded at 2×10^6 per 10 ml total volume per 10 cm non-tissue culture treated dishes with 40 ng/ml mouse GM-CSF for 7 days. Fresh media was half-exchanged every 2-3 days. Culture medium was RPMI-1640 with 10% fetal bovine serum, 20 μM HEPES, 55 μM 2-mercaptoethanol, 50 μg/ml gentamicin, and 1:100 dilutions of the following supplements from Gibco: Gluta-MAX, sodium pyruvate, penicillin/streptomycin, and non-essential amino acids. On day 7 all cells were harvested and washed, then seeded at 100,000 cells/well in a 96-well flat-bottom plate. MEK inhibitor GDC-0973 was added at a final concentration of 1 μM, anti-PDL1 human/mouse reverse chimera or anti-Ragweed mouse IgG2a isotype control (Genentech PUR 22251) were added at 10 μg/ml. […] After 48 hours of stimulation, cells were harvested and transferred to a 96-well V-bottom plate. Samples were first Fc receptor blocked (purified anti-CD16/CD32 from BD Biosciences, 5 μg/ml) and then stained with I-A/I-E-FITC, H-2Db/H-2Kb-biotin (followed by streptavidin-PE), CD11c-APC, CD86-FITC, and CD80-PE (all from BD Biosciences). Propidium iodide was included to exclude dead cells. Samples were run on a BD FACSCaliber flow cytometer and data was analyzed using FlowJo software (Tree Star, Inc.).

O=C(NOCCO)c1oc2ccncc2c1Nc1ccc(I)cc1F [Compound G-38963]
cell surface expression of MHC-I [1]: upregulated | cell surface expression of MHC-I [2]: upregulated | T cell receptor induced proliferation, anti-CD3 stimulation (human CD8+ T cells): nearly complete inhibition | T cell activation, co-stimulation with anti-CD3 and anti-CD28 (human CD8+ T cells): sufficient to overcome the inhibitory effect of MEKi | T cell proliferation, anti-CD3 stimulation (human CD8+ T cells): reduced the stimulatory effect of anti-CD3 | frequency of DCs expressing surface markers of DC maturation and activation [3]: enhanced the frequency of DCs expressing these surface markers | serum IL-10 level [4]: decreased | tumor growth (colorectal tumors): highly effective as a single agent therapy at preventing tumor growth | tumor growth [5]: highly effective as a single agent therapy at preventing tumor growth

O=C(c1ccc(F)c(F)c1Nc1ccc(I)cc1F)N1CC(O)([C@@H]2CCCCN2)C1 [GDC-0973, Methanone, [3,4-difluoro-2-[(2-fluoro-4-iodophenyl)amino]phenyl][3-hydroxy-3-(2S)-2-piperidinyl-1-azetidinyl]-]
cell surface expression of MHC-I [1]: upregulated | cell surface expression of MHC-I [2]: upregulated | cell surface expression of MHC-I [6]: not upregulated | T cell receptor induced proliferation, anti-CD3 stimulation (human CD8+ T cells): nearly complete inhibition | T cell activation, co-stimulation with anti-CD3 and anti-CD28 (human CD8+ T cells): sufficient to overcome the inhibitory effect of MEKi | T cell proliferation, anti-CD3 stimulation (human CD8+ T cells): reduced the stimulatory effect of anti-CD3 | frequency of cells expressing CD83, MHC-II and CD86 ([3]; 1 μM, anti-CD40, 48 hours, compared to vehicle): increased | frequency of DCs expressing surface markers of DC maturation and activation [3]: enhanced the frequency of DCs expressing these surface markers | % TGI ([7]; 0.5 mg/kg orally daily for 21 days): −8% | % TGI ([7]; 1.0 mg/kg orally daily for 21 days): −16% | % TGI ([7]; 2.0 mg/kg orally daily for 21 days): −21% | % TGI ([7]; 3.0 mg/kg orally daily for 21 days): −4% | % TGI ([7]; 4.0 mg/kg orally daily for 21 days): 27% | % TGI ([7]; 5.0 mg/kg orally daily for 21 days): 55% | % TGI ([7]; 6.0 mg/kg orally daily for 21 days): 72% | % TGI ([7]; 7.5 mg/kg orally daily for 21 days): 87% | tumor growth ([7]; increasing doses, maximal inhibition at 7.5 mg/kg at 20 days post-treatment): suppressed tumor growth | % CR [8]: 0% | % PR [8]: 10% | % TGI [8]: 71% | TTP5X [8]: 21.5 days | DC surface activation markers MHC-II, CD80, CD86 [9]: enhanced | DC surface expression of MHC-I [9]: enhanced
